The target in experiment [1] is T1, Full length DGKζ (in-house protein M1-V929) (Homo sapiens, UniProt Q13574).
T1 construct: His (N); TEV site (N); made in house; host or cells: Sf9 insect cells (Bac-to-Bac baculovirus)
Put plainly: Biochemical DGK IC50 assay (ADP-Glo, lipid micelle substrate), DGKζ. As to conditions: 1 hour preincubation, 1 hour reaction, room temperature. In a few lines:
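Enzyme: full-length human DGKζ M1-V929, produced in baculovirus-infected Sf9 cells; substrate DAG/PS micelles. Buffer 50 mM HEPES, 10 mM MgCl2, 0.01 mM CaCl2, 0.1 mM Na3VO4.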
In general terms: ADP-Glo first removes unused ATP, then detects ADP through luciferase.

The target of experiment [2] is T2, Full length DGKα (D21-10BG, SignalChem) (Homo sapiens, UniProt P23743).
T2 construct: Full length DGKα (D21-10BG, SignalChem); purchased SignalChem D21-10BG
T2 sequence (P23743 whole entry): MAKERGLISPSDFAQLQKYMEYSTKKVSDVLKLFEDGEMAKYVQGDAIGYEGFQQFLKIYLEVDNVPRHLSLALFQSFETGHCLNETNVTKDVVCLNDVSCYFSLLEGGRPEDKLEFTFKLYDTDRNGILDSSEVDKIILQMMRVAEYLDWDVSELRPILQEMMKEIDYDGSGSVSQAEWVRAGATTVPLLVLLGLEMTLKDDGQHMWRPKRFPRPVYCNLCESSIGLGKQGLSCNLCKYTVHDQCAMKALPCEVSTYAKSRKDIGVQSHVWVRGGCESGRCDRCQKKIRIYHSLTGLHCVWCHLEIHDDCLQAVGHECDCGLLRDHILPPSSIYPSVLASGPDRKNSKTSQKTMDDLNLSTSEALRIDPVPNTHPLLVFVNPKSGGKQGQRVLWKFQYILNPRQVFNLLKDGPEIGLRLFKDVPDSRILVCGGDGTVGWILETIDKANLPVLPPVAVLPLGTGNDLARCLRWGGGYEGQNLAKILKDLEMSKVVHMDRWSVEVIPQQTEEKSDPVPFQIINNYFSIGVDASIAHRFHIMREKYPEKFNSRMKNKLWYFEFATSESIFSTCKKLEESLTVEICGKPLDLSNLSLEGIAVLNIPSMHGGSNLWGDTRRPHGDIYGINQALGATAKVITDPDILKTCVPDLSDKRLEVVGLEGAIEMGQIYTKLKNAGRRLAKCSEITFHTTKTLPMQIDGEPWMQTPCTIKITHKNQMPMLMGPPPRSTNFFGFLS
The experiment can be described thus: Biochemical DGK IC50 assay (ADP-Glo, lipid micelle substrate), DGKα. The following applies: 1 hour preincubation, 1 hour reaction, room temperature. An outline of the steps:
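ADP-Glo luminescence quantified ADP produced after a 1 h room-temperature reaction of full-length DGKα on DAG/PS micelles, in HEPES buffer containing MgCl2, CaCl2, vanadate, BSA and Tween-20. IC50 values derive from activity inhibition over a compound concentration series.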

In patent US20260125378A2, “Heterocyclic Compounds” (BeOne Medicines I GmbH, priority 2023, published 2026) one finds IC50 data, which are given here for 27 molecules.

T1 sequence (Q13574 1-929 isoform Q13574-4): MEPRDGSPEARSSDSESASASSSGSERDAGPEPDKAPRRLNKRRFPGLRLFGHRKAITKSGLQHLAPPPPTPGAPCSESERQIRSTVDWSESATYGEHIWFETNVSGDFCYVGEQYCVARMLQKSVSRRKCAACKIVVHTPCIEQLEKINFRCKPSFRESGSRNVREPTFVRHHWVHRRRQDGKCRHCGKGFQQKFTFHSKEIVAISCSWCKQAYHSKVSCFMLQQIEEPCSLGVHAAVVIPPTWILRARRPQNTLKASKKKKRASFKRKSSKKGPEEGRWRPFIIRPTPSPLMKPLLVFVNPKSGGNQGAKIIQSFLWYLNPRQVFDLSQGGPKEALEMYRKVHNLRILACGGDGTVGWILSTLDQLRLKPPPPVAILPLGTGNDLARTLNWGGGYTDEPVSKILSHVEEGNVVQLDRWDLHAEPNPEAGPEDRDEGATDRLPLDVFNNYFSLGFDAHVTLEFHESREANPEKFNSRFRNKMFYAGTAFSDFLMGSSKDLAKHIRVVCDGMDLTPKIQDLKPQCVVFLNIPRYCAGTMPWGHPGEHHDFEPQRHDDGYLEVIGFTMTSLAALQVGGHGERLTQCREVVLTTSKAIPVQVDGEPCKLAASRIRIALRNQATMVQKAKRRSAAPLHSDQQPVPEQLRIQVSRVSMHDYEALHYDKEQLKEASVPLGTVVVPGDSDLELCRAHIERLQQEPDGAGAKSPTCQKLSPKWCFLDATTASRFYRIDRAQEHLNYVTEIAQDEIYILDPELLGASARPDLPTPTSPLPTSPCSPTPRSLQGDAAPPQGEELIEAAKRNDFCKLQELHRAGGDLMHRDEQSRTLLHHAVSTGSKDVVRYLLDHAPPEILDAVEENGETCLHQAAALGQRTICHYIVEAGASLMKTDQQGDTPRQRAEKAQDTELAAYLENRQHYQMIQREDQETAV

By IC50 is commonly meant the point on the concentration scale where inhibition reaches its midpoint. Higher therefore signals lower potency. In the case of `CCn1c(CC#N)nc2c(N3C[C@@H](C)N(C(C)c4ccc5c(c4)C(=O)N(C)C5=O)C[C@@H]3C)nc(=O)n(C)c21` (stereo partly drawn) [Compound A83, 2-(6-((2S,5R)-2,5-dimethyl-4-(1-(2-methyl-1,3-dioxoisoindolin-5-yl)ethyl)piperazin-1-yl)-9-ethyl-3-methyl-2-oxo-3,9-dihydro-2H-purin-8-yl)acetonitrile], the IC50 was 40 nM in experiment [1] and > 150000 nM in experiment [2].

As to `CC(c1ccc2c(c1)OCCO2)N1C[C@H](C)N(c2nc(=O)n(C)c3c2nc(CC#N)n3C)C[C@H]1C` (single isomer, unassigned) [Compound A58b], the IC50 in experiment [1] is 1660 nM; in experiment [2], 90800 nM.

As to `CCn1c(=O)nc(N2C[C@@H](C)N(C(C)c3ccc4ncc(C)nc4c3)C[C@@H]2C)c2nc(CC#N)n(C)c21` (single isomer, unassigned) [Compound A53a], the 50% inhibitory concentration (IC50) in experiment [1] stood at 24 nM; in experiment [2] it was 60300 nM.

With `CCn1c(CC#N)nc2c(N3C[C@@H](C)N(C(C)c4cccc(C(F)(F)F)n4)C[C@@H]3C)nc(=O)n(C)c21` (single isomer, unassigned) [Compound A118a], the values for the IC50 in experiment [1] and in experiment [2] were 4820 nM and > 150000 nM, respectively.

On to `COc1cc(F)ccc1C(C)N1C[C@H](C)N(c2cc(=O)n(C)c3c2nc(CC#N)n3C)C[C@H]1C` (single isomer, unassigned) [Compound A4b], for which the IC50 is 64 nM in experiment [1] and > 10000 nM in experiment [2].

Take `CC[C@@H]1CN(c2nc(=O)n(CC)c3c2nc(CC#N)n3C)[C@@H](C)CN1C(C)c1ccc2c(c1)OC(C)(C)CO2` (single isomer, unassigned) [Compound A66b]: the IC50 in experiment [1] is 1 nM; in experiment [2], 6860 nM.

`CCn1c(CC#N)nc2c(N3C[C@@H](C)N(C(C)c4cccc(N5CC6(COC6)C5)c4)C[C@@H]3C)nc(=O)n(C)c21` (stereo partly drawn) [Compound A140, 2-(6-((2S,5R)-4-(1-(3-(2-oxa-6-azaspiro[3.3]heptan-6-yl)phenyl)ethyl)-2,5-dimethylpiperazin-1-yl)-9-ethyl-3-methyl-2-oxo-3,9-dihydro-2H-purin-8-yl)acetonitrile]: the IC50 in experiment [1] is 594 nM; in experiment [2] it was > 150000 nM.

For `CCn1c(CC#N)nc2c(N3C[C@@H](C)N(C(C)c4ccc5c(c4F)OC(C)(C)CO5)C[C@@H]3C)nc(=O)n(C)c21` (stereo partly drawn) [Compound A71, 2-(9-ethyl-6-((2S,5R)-4-(1-(5-fluoro-3,3-dimethyl-2,3-dihydrobenzo[b][1,4]dioxin-6-yl)ethyl)-2,5-dimethylpiperazin-1-yl)-3-methyl-2-oxo-3,9-dihydro-2H-purin-8-yl)acetonitrile], the IC50 in experiment [1] was determined as 48 nM; in experiment [2], 124000 nM.

On to `CCc1nc2cc(C(C)N3C[C@H](C)N(c4nc(=O)n(C)c5c4nc(CC#N)n5CC)C[C@H]3C)ccc2s1` (mixture of isomers) [Compound A95, 2-(9-ethyl-6-((2S,5R)-4-(1-(2-ethylbenzo[d]thiazol-5-yl)ethyl)-2,5-dimethylpiperazin-1-yl)-3-methyl-2-oxo-3,9-dihydro-2H-purin-8-yl)acetonitrile], for which the IC50 in experiment [1] turned out to be 42 nM; in experiment [2] it was 50500 nM.

As for `CCn1c(CC#N)nc2c(N3C[C@@H](C)N(C(C)c4ccc5c(c4F)OC(C)(C)O5)C[C@@H]3C)c(F)c(=O)n(C)c21` (mixture of isomers) [Compound A190, 2-(3-ethyl-6-fluoro-7-((2S,5R)-4-(1-(4-fluoro-2,2-dimethylbenzo[d][1,3]dioxol-5-yl)ethyl)-2,5-dimethylpiperazin-1-yl)-4-methyl-5-oxo-4,5-dihydro-3H-imidazo[4,5-b]pyridin-2-yl)acetonitrile], the IC50 is 13 nM in experiment [1] and 106000 nM in experiment [2].

Turning to `Cc1ccc(C(C)N2C[C@H](C)N(c3nc(=O)n(C)c4c3nc(CC#N)n4C)C[C@H]2C)c(C(F)(F)F)c1` (single isomer, unassigned) [Compound A32a], the IC50 in experiment [1] is 3740 nM; in experiment [2] it was > 10000 nM.

With `CCn1c(CC#N)nc2c(N3C[C@@H](C)N(C(C)c4ccc5c(c4)C(F)(F)CCO5)C[C@@H]3C)nc(=O)n(C)c21` (stereo partly drawn) [Compound A78, 2-(6-((2S,5R)-4-(1-(4,4-difluorochroman-6-yl)ethyl)-2,5-dimethylpiperazin-1-yl)-9-ethyl-3-methyl-2-oxo-3,9-dihydro-2H-purin-8-yl)acetonitrile], the IC50 turned out to be 7 nM in experiment [1] and 102000 nM in experiment [2].

In the case of `CCn1c(CC#N)nc2c(N3C[C@@H](C)N(C(C)c4ccc(F)c(C(F)F)c4)C[C@@H]3C)nc(=O)n(C)c21` (stereo partly drawn) [Compound A112, 2-(6-((2S,5R)-4-(1-(3-(difluoromethyl)-4-fluorophenyl)ethyl)-2,5-dimethylpiperazin-1-yl)-9-ethyl-3-methyl-2-oxo-3,9-dihydro-2H-purin-8-yl)acetonitrile], the IC50 was 35 nM in experiment [1] and > 150000 nM in experiment [2].

For the molecule `CC(c1ccc(C(F)(F)F)cn1)N1C[C@H](C)N(c2nc(=O)n(C)c3c2nc(CC#N)n3C)C[C@H]1C` (single isomer, unassigned) [Compound A148a], the figures for the IC50 in experiment [1] and in experiment [2] were 1100 nM and 3630 nM, respectively.

As to `CC(c1ccc(F)cc1C(F)(F)F)N1C[C@H](C)N(c2cc(=O)n(C)c3c2nc(CC#N)n3C)C[C@H]1C` (stereo partly drawn) [Compound A2, 2-(7-((2S,5R)-4-(1-(4-fluoro-2-(trifluoromethyl)phenyl)ethyl)-2,5-dimethylpiperazin-1-yl)-3,4-dimethyl-5-oxo-4,5-dihydro-3H-imidazo[4,5-b]pyridin-2-yl)acetonitrile], the half-inhibitory concentration (IC50) is 92 nM in experiment [1] and > 150000 nM in experiment [2].

In the case of `CCn1c(CC#N)nc2c(N3C[C@@H](C)N(C(C)c4cccc(C(C)(C)C#N)c4)C[C@@H]3C)nc(=O)n(C)c21` (stereo partly drawn) [Compound A134, 2-(3-(1-((2R,5S)-4-(8-(cyanomethyl)-9-ethyl-3-methyl-2-oxo-3,9-dihydro-2H-purin-6-yl)-2,5-dimethylpiperazin-1-yl)ethyl)phenyl)-2-methylpropanenitrile], the IC50 in experiment [1] was found to be 22 nM; in experiment [2] it was 113000 nM.

Regarding `CCn1c(=O)nc(N2C[C@@H](C)N(C(C)c3ccc4c(c3)OC(C)(C)CO4)C[C@@H]2C)c2nc(CC#N)n(C)c21` (single isomer, unassigned) [Compound A61b], the IC50 in experiment [1] stood at 420 nM; in experiment [2], 37900 nM.

On to `CC(c1ccc2c(c1)OC(F)(F)C(F)(F)O2)N1C[C@H](C)N(c2nc(=O)n(C)c3c2nc(CC#N)n3C)C[C@H]1C` (single isomer, unassigned) [Compound A79a], for which the half-inhibitory concentration (IC50) stood at 38 nM in experiment [1] and 7280 nM in experiment [2].

Turning to `CCn1c(CC#N)nc2c(N3C[C@@H](C)N(C(C)c4ccc5c(c4)CN(C)C5=O)C[C@@H]3C)nc(=O)n(C)c21` (stereo partly drawn) [Compound A101, 2-(6-((2S,5R)-2,5-dimethyl-4-(1-(2-methyl-1-oxoisoindolin-5-yl)ethyl)piperazin-1-yl)-9-ethyl-3-methyl-2-oxo-3,9-dihydro-2H-purin-8-yl)acetonitrile], the IC50 in experiment [1] was 4230 nM; in experiment [2], > 150000 nM.

Regarding `CC(c1ccc(F)cc1C(F)F)N1C[C@H](C)N(c2nc(=O)n(C)c3c2nc(CC#N)n3C)C[C@H]1C` (stereo partly drawn) [Compound A30, 2-(6-((2S,5R)-4-(1-(2-(difluoromethyl)-4-fluorophenyl)ethyl)-2,5-dimethylpiperazin-1-yl)-3,9-dimethyl-2-oxo-3,9-dihydro-2H-purin-8-yl)acetonitrile], the IC50 in experiment [1] is 14 nM; in experiment [2] it was 44300 nM.

With `CC(c1cccnc1C(F)(F)F)N1C[C@H](C)N(c2cc(=O)n(C)c3c2nc(CC#N)n3C)C[C@H]1C` (single isomer, unassigned) [Compound A7b], the IC50 in experiment [1] is 35 nM; in experiment [2] it was 97600 nM.

Turning to `CC(c1ccc2c(c1F)OC(C)(C)CO2)N1C[C@H](C)N(c2nc(=O)n(C)c3c2nc(CC#N)n3C)C[C@H]1C` (stereo partly drawn) [Compound A70, 2-(6-((2S,5R)-4-(1-(5-fluoro-3,3-dimethyl-2,3-dihydrobenzo[b][1,4]dioxin-6-yl)ethyl)-2,5-dimethylpiperazin-1-yl)-3,9-dimethyl-2-oxo-3,9-dihydro-2H-purin-8-yl)acetonitrile], the IC50 in experiment [1] was 8 nM; in experiment [2] it was 9690 nM.

Take `CCn1c(CC#N)nc2c(N3C[C@@H](C)N(C(C)c4ccc5c(c4)OC(C)(C)C5=O)C[C@@H]3C)nc(=O)n(C)c21` (stereo partly drawn) [Compound A179, 2-(6-((2S,5R)-4-(1-(2,2-dimethyl-3-oxo-2,3-dihydrobenzofuran-6-yl)ethyl)-2,5-dimethylpiperazin-1-yl)-9-ethyl-3-methyl-2-oxo-3,9-dihydro-2H-purin-8-yl)acetonitrile]: the results for the IC50 in experiment [1] and in experiment [2] were 6 nM and 69000 nM, respectively.

Consider `CCn1c(CC#N)nc2c(N3C[C@@H](C)N(C(C)c4ccc5c(c4)OC(F)(F)O5)C[C@@H]3C)nc(=O)n(C)c21` (single isomer, unassigned) [Compound A99a], for which the results for the IC50 in experiment [1] and in experiment [2] were 71 nM and 34500 nM, respectively.

Take `CC(c1ccc2c(c1)OC(F)(F)C(F)(F)O2)N1C[C@H](C)N(c2nc(=O)n(C)c3c2nc(CC#N)n3C)C[C@H]1C` (single isomer, unassigned) [Compound A79b]: the IC50 in experiment [1] was found to be 529 nM; in experiment [2], 14800 nM.

For the molecule `CCn1c(CC#N)nc2c(N3C[C@@H](C)N(C(C)c4ccnc5c4OCCC5(F)F)C[C@@H]3C)nc(=O)n(C)c21` (single isomer, unassigned) [Compound A103b], the values for the concentration for half-maximal inhibition (IC50) in experiment [1] and in experiment [2] were 52 nM and > 150000 nM, respectively.

Turning to `CC(c1cc2c(cc1F)OCC(C)(C)O2)N1C[C@H](C)N(c2nc(=O)n(C)c3c2nc(CC#N)n3C)C[C@H]1C` (single isomer, unassigned) [Compound A69a], the half-inhibitory concentration (IC50) in experiment [1] was 2 nM; in experiment [2], 1190 nM.
